Source: patent publication US6479435B1, “Diaryl ethers and processes for their preparation and herbicidal and desiccant compositions containing them” (ISK Americas Incorporated, priority 1997, dated 2002)

Key:
Type in all cases: in vivo
[1] = system: common ragweed (Ambrosia artemisiifolia L., AMBEL); test: Post-emerge greenhouse herbicide test, phytotoxicity rating; conditions: 14 days after application
Procedure, shortened: (§1)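 Scores use a 0 (no damage) to 100 (complete kill) scale, taken 14 days after a foliar spray. Acetone solutions with 0.25% v/v non-ionic surfactant were applied by track sprayer at 187 l/ha and 63-1000 g ai/ha to bottom-watered 2-3 leaf plants.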

[2] = system: soybean (Glycine max L., var. Pella 86, SOY); test: Post-emerge greenhouse test, crop damage rating; conditions: 14 days after application
Procedure, shortened: as §1

[3] = system: field corn (Zea mays L., var. Dekalb 535, CORN); test: Pre-emerge greenhouse test, crop damage rating; conditions: 14 days after application, rating scale 0-100
Procedure, shortened: (§2)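 Visual 0–100 injury rating (100 = all plants dead) taken 14 days after treatment. Rates of 125–1000 g ai/ha in acetone, 187 l/ha, were sprayed onto soil one day post-sowing; pots were surface-watered to incorporate, then bottom-watered.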

[4] = system: upland rice (Oryza sp., var.Tebonnet, RICE); test: Pre-emerge greenhouse test, crop damage rating; conditions: 14 days after application, rating scale 0-100
Procedure, shortened: as §2

[5] = system: redroot pigweed (Amaranthus retroflexus, AMARE); test: Pre-emerge greenhouse herbicide test, phytotoxicity rating; conditions: 14 days after application, rating scale 0-100
Procedure, shortened: as §2

[6] = system: large crabgrass (Digitaria sanguinalis, DIGSA); test: as above; conditions: 14 days after application, rating scale 0-100
Procedure, shortened: as §2

[7] = system: ivyleaf morningglory (Ipomoea hederacea, IPOHE); test: as above; conditions: 14 days after application, rating scale 0-100
Procedure, shortened: as §2

[8] = system: Johnsongrass (Sorghum halepense, SORHA); test: as above; conditions: 14 days after application, rating scale 0-100
Procedure, shortened: as §2

[9] = system: sicklepod (Cassia obtusifolia, CASOB); test: as above; conditions: 14 days after application, rating scale 0-100
Procedure, shortened: as §2

[10] = system: lambsquarters (Chenopodium album, CHEAL); test: as above; conditions: 14 days after application, rating scale 0-100
Procedure, shortened: as §2

[11] = system: common ragweed (Ambrosia artemisiifolia L., AMBEL); test: as above; conditions: 14 days after application, rating scale 0-100
Procedure, shortened: as §2

[12] = system: barnyardgrass (Echinochloa crusgalli, ECHCG); test: as above; conditions: 14 days after application, rating scale 0-100
Procedure, shortened: as §2

[13] = system: green foxtail (Setaria viridis, SETVI); test: as above; conditions: 14 days after application, rating scale 0-100
Procedure, shortened: as §2

[14] = system: velvetleaf (Abutilon theophrasti, ABUTH); test: as above; conditions: 14 days after application, rating scale 0-100
Procedure, shortened: as §2

[15] = system: redroot pigweed (Amaranthus retroflexus, AMARE); test: Post-emerge greenhouse herbicide test, phytotoxicity rating; conditions: 14 days after application
Procedure, shortened: as §1

[16] = system: large crabgrass (Digitaria sanguinalis, DIGSA); test: as above; conditions: 14 days after application
Procedure, shortened: as §1

[17] = system: ivyleaf morningglory (Ipomoea hederacea, IPOHE); test: as above; conditions: 14 days after application
Procedure, shortened: as §1

[18] = system: Johnsongrass (Sorghum halepense, SORHA); test: as above; conditions: 14 days after application
Procedure, shortened: as §1

[19] = system: sicklepod (Cassia obtusifolia, CASOB); test: as above; conditions: 14 days after application
Procedure, shortened: as §1

[20] = system: lambsquarters (Chenopodium album, CHEAL); test: as above; conditions: 14 days after application
Procedure, shortened: as §1

[21] = system: barnyardgrass (Echinochloa crusgalli, ECHCG); test: as above; conditions: 14 days after application
Procedure, shortened: as §1

[22] = system: green foxtail (Setaria viridis, SETVI); test: as above; conditions: 14 days after application
Procedure, shortened: as §1

[23] = system: velvetleaf (Abutilon theophrasti, ABUTH); test: as above; conditions: 14 days after application
Procedure, shortened: as §1

[24] = system: field corn (Zea mays L., var. Dekalb 535, CORN); test: Post-emerge greenhouse test, crop damage rating; conditions: 14 days after application
Procedure, shortened: as §1

[25] = system: upland rice (Oryza sp., var.Tebonnet, RICE); test: Post-emerge greenhouse test, crop damage rating; conditions: 14 days after application
Procedure, shortened: as §1

[26] = system: soybean (Glycine max L., var. Pella 86, SOY); test: Pre-emerge greenhouse test, crop damage rating; conditions: 14 days after application, rating scale 0-100
Procedure, shortened: as §2

O=c1n(-c2cc(Oc3ccccc3[N+](=O)[O-])c(Cl)cc2F)c(=S)n2n1CCCC2 [Compound 8-6]
AMBEL phytotoxicity rating (0-100) ([1]; 63 g al/ha): 60
AMBEL phytotoxicity rating (0-100) ([1]; 500 g al/ha): 90
SOY crop damage rating (0-100) ([2]; 63 g al/ha): 70
SOY crop damage rating (0-100) ([2]; 500 g al/ha): 90
crop damage rating CORN ([3]; 125 g ai/ha): 0
crop damage rating CORN ([3]; 500 g ai/ha): 0
crop damage rating RICE ([4]; 125 g ai/ha): 10
crop damage rating RICE ([4]; 500 g ai/ha): 40
phytotoxicity rating AMARE ([5]; 125 g ai/ha): 100
phytotoxicity rating AMARE ([5]; 500 g ai/ha): 100
phytotoxicity rating DIGSA ([6]; 125 g ai/ha): 40
phytotoxicity rating DIGSA ([6]; 500 g ai/ha): 100
phytotoxicity rating IPOHE ([7]; 125 g ai/ha): 50
phytotoxicity rating IPOHE ([7]; 500 g ai/ha): 90
phytotoxicity rating SORHA ([8]; 125 g ai/ha): 20
phytotoxicity rating SORHA ([8]; 500 g ai/ha): 50
phytotoxicity rating CASOB ([9]; 125 g ai/ha): 100
phytotoxicity rating CASOB ([9]; 500 g ai/ha): 95
phytotoxicity rating CHEAL ([10]; 125 g ai/ha): 100
phytotoxicity rating CHEAL ([10]; 500 g ai/ha): 100
phytotoxicity rating AMBEL ([11]; 125 g ai/ha): 40
phytotoxicity rating AMBEL ([11]; 500 g ai/ha): 100
phytotoxicity rating ECHCG ([12]; 125 g ai/ha): 20
phytotoxicity rating ECHCG ([12]; 500 g ai/ha): 50
phytotoxicity rating SETVI ([13]; 125 g ai/ha): 95
phytotoxicity rating SETVI ([13]; 500 g ai/ha): 100
phytotoxicity rating ABUTH ([14]; 125 g ai/ha): 100
phytotoxicity rating ABUTH ([14]; 500 g ai/ha): 100
AMARE phytotoxicity rating (0-100) ([15]; 63 g al/ha): 100
AMARE phytotoxicity rating (0-100) ([15]; 500 g al/ha): 100
DIGSA phytotoxicity rating (0-100) ([16]; 63 g al/ha): 0
DIGSA phytotoxicity rating (0-100) ([16]; 500 g al/ha): 30
IPOHE phytotoxicity rating (0-100) ([17]; 63 g al/ha): 90
IPOHE phytotoxicity rating (0-100) ([17]; 500 g al/ha): 100
SORHA phytotoxicity rating (0-100) ([18]; 63 g al/ha): 0
SORHA phytotoxicity rating (0-100) ([18]; 500 g al/ha): 30
CASOB phytotoxicity rating (0-100) ([19]; 63 g al/ha): 60
CASOB phytotoxicity rating (0-100) ([19]; 500 g al/ha): 100
CHEAL phytotoxicity rating (0-100) ([20]; 63 g al/ha): 90
CHEAL phytotoxicity rating (0-100) ([20]; 500 g al/ha): 99
ECHCG phytotoxicity rating (0-100) ([21]; 63 g al/ha): 10
ECHCG phytotoxicity rating (0-100) ([21]; 500 g al/ha): 30
SETVI phytotoxicity rating (0-100) ([22]; 63 g al/ha): 30
SETVI phytotoxicity rating (0-100) ([22]; 500 g al/ha): 90
ABUTH phytotoxicity rating (0-100) ([23]; 63 g al/ha): 100
ABUTH phytotoxicity rating (0-100) ([23]; 500 g al/ha): 100
CORN crop damage rating (0-100) ([24]; 63 g al/ha): 5
CORN crop damage rating (0-100) ([24]; 500 g al/ha): 20
RICE crop damage rating (0-100) ([25]; 63 g al/ha): 5
RICE crop damage rating (0-100) ([25]; 500 g al/ha): 50
crop damage rating SOY ([26]; 125 g ai/ha): 20
crop damage rating SOY ([26]; 500 g ai/ha): 40
